Measurements reported in US20250222128A1, “ANTIBODY DRUG-CONJUGATES TARGETING C-MET AND METHODS OF USE THEREOF” (Zymeworks BC Inc., priority 2022, published 2025).
Read-outs that look alike come from different tables or passages of the source.

Legend:
[1] = test system: EBC-1 (lung squamous cell carcinoma); test: In vitro cytotoxicity (cell growth inhibition, CellTiter-Glo); format: cell-based
Procedure: (§1) The cell growth inhibition (cytotoxicity) capabilities of anti-cMet ADCs comprising variant v17427 (HetFc, unmodified hinge) conjugated to Drug-Linker 001 or MCvcPABC-MMAE by stochastic cysteine conjugation at an average DAR 4 were determined in a panel of four cMet-expressing cell lines as described below. The cell lines were EBC-1 (lung squamous cell carcinoma), H292 (lung carcinoma), BT-20 (breast cancer) and SW48 (colorectal cancer).
(§2) Briefly, cells were seeded in 384-well plates at 1,000-1,500 cells/well density and treated with a titration of test article, generated in complete cell growth medium. Treated cells were incubated for 4-5 days under standard culturing conditions (37° C./5% CO2). After incubation, CellTiter-Glo® reagent (Promega Corporation, Madison, WI; Cat. No. G7570) was spiked into each well and luminescence corresponding to ATP present in each well was measured using a Synergy™ H1 microplate (BioTek Instruments, Winooski, VT). Based on blank wells (no test article added, only blank media), % cytotoxicity values were calculated using ATP measurement RLU values (Relative Light Units) and plotted against test article concentration using GraphPad Prism 8 software (GraphPad Software, San Diego, CA).
(§3) Cytotoxicity was determined as described in Example 6 with treated cells (1,000 cells/well) being incubated for 4 days under standard culturing conditions (37° C./5% CO2).
(§4) The cell growth inhibition capabilities of ADCs comprising anti-cMet antibodies with either a HomoFc or HetFc backbone (v32634 and v17427, respectively) conjugated to Drug-Linker 002 by stochastic lysine conjugation at approximately DAR 4 and DAR 6 were assessed in a panel of four cMet-expressing tumour cell lines and one cMet-negative cell line. The anti-RSV antibody, palivizumab (v22277), conjugated to Drug-Linker 002 at DAR 3.7, and free payload (Compound 1), were used as controls. Cytotoxicity was determined as described in Example 8. Cell lines were SNU-5 (gastric carcinoma), EBC-1 (lung squamous cell carcinoma), H1975 (non-small cell lung cancer), H292 (lung carcinoma) and cMet-negative T-47D (breast cancer).
(§5) The cell growth inhibition capabilities of site-specific cysteine-conjugated ADCs comprising various cysteine insertion antibody variants conjugated to Drug-Linker 001 at approximately DAR 1, 2 or 3, were assessed in a panel of four cMet-expressing tumour cell lines, SNU-5 (gastric carcinoma), EBC-1 (lung squamous cell carcinoma), H292 (lung carcinoma) and H1975 (non-small cell lung cancer), and one cMet-negative cell line, T-47D (breast carcinoma). An ADC comprising the anti-RSV antibody palivizumab (v22277) conjugated to Drug-Linker 001 at approximately DAR 4 was used as a non-targeted control. […] Cytotoxicity was determined as described in Example 7.
(§6) The cell growth inhibition capabilities of ADCs comprising variant v29001, having two cysteine insertions, conjugated to multivalent Drug-Linker 003 or multivalent Drug-Linker 004, were assessed in a panel of cMet-expressing tumour cell lines together with ADCs comprising parental variant v17427 conjugated to the monovalent Drug-Linker 002 at DAR 4 or DAR 6. Cell lines used were SNU-5 (gastric carcinoma), EBC-1 (lung squamous cell carcinoma), H292 (lung carcinoma), H1975 (non-small cell lung cancer) and T-47D (breast carcinoma, cMet-negative). ADCs comprising the anti-RSV antibody palivizumab (v22277) conjugated to Drug-Linker 002 were used as non-targeted controls. Free payload Compound 1 was also included as a control. Cytotoxicity was determined as described in Example 8.

H292 (lung carcinoma) = test: as above; format: cell-based
Procedure: as §1, §2, §3, §4, §5, §6

BT-20 (breast cancer) = test: as above; format: cell-based
Procedure: as §1
as §2, with “CA). […]” for “CA).”
as §3

SW48 (colorectal cancer) = test: as above; format: cell-based; settings: Homo sapiens, 4-5 days, Table 6.1, read-out: EC50 (nM) - DAR corrected
Procedure: as §1, §2

[2] = test system: H1975 (non-small cell lung cancer); test: as above; format: cell-based
Procedure: as §2
(§7) The cell growth inhibition capabilities of anti-cMet ADCs comprising variant v17427 (HetFc, unmodified hinge) conjugated to Drug-Linker 002 by stochastic lysine conjugation at DARs ranging from DAR 2 to DAR 6 were determined in a panel of seven cMet-expressing cell lines. Variant v17427 conjugated to MCvcPABC-MMAE drug linker at DAR 4, and anti-RSV antibody, palivizumab (v22277), conjugated to Drug-Linker 002 or MCvcPABC-MMAE at DAR 4, were used as controls. Cell lines were SNU-5 (gastric carcinoma), EBC-1 (lung squamous cell carcinoma), HCC827 (lung cancer), H1975 (non-small cell lung cancer), HCT-116 (colorectal cancer), H292 (lung carcinoma) and BT-20 (breast cancer).
as §3, §4, §6

[3] = test system: SNU-5 (gastric carcinoma); test: as above; format: cell-based; settings: 4 days
Procedure: as §2, §7, §3, §4, §6

[4] = test system: cMet-negative T-47D (breast cancer); test: as above; format: cell-based; settings: Homo sapiens, T47D, 96 h
Procedure: as §2, §3
The cell growth inhibition capabilities of ADCs comprising anti-cMet antibodies with either a HomoFc or HetFc backbone (v32634 and v17427, respectively) conjugated to Drug-Linker 002 by stochastic lysine conjugation at approximately DAR 4 and DAR 6 were assessed in a panel of four cMet-expressing tumour cell lines and one cMet-negative cell line. […] Cytotoxicity was determined as described in Example 8. […]

HCC827 (lung cancer) = test: as above; format: cell-based; settings: 4 days, Table 8.1
Procedure: as §2
(§8) The cell growth inhibition capabilities of anti-cMet ADCs comprising variant v17427 (HetFc, unmodified hinge) conjugated to Drug-Linker 002 by stochastic lysine conjugation at DARs ranging from DAR 2 to DAR 6 were determined in a panel of seven cMet-expressing cell lines. […]
as §3

[5] = test system: HCT-116 (colorectal cancer); test: as above; format: cell-based; settings: 4 days, Table 8.1
Procedure: as §2, §8, §3

[6] = test system: cMet-positive non-small cell lung carcinoma (NSCLC); settings: Phase II trials; cited from earlier work
[7] = target: T1, cMet on H292 endogenous cMet-expressing cell line (Homo sapiens, UniProt P08581); test: Cellular equilibrium binding by flow cytometry
T1 construct: SNU-5 and H292 endogenous cMet-expressing cell lines; endogenous in cells; host or cells: H292
T1 sequence (P08581 25-1390): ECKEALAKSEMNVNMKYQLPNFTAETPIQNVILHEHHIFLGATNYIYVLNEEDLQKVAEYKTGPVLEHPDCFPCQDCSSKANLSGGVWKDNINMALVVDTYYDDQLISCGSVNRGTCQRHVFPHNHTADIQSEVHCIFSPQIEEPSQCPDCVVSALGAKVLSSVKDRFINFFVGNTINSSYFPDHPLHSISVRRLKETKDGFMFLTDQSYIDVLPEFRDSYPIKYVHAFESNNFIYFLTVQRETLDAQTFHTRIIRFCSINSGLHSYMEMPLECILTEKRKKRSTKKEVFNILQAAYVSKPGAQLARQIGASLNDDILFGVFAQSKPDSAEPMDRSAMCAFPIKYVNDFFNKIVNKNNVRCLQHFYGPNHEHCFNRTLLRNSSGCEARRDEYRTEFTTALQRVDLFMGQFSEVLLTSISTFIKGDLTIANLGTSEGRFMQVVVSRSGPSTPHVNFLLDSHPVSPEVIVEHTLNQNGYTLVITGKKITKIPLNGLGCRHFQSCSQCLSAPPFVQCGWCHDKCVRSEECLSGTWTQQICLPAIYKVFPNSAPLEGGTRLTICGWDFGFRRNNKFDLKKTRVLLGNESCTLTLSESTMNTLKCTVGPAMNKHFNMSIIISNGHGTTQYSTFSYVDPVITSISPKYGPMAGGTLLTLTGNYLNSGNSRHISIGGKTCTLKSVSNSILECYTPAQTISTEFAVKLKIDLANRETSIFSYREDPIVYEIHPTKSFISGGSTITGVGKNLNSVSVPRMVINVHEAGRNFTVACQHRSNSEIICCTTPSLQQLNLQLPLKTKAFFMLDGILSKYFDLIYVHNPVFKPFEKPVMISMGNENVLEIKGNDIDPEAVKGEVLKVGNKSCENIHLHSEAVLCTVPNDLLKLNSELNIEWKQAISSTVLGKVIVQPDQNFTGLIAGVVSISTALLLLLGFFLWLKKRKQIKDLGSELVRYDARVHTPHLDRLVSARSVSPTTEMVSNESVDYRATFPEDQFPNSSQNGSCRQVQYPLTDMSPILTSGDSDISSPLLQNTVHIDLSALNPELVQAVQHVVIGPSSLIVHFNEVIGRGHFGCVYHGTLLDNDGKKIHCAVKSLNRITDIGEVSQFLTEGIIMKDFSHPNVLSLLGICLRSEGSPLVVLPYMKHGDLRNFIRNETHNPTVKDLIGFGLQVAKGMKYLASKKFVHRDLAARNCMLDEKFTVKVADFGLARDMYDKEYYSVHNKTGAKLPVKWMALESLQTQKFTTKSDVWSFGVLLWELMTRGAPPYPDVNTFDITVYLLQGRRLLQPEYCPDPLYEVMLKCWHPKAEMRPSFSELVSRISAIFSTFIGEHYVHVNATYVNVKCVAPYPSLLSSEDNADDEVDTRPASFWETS
Procedure: (§9) The on-cell binding capabilities of ADCs comprising anti-cMet antibodies with either a HomoFc or HetFc backbone (v32634 and v17427, respectively) conjugated to Drug-Linker 002 by stochastic lysine conjugation at approximately DAR 4 and DAR 6 were assessed for cMet binding using SNU-5 and H292 endogenous cMet-expressing cell lines by flow cytometry as described below. Unconjugated anti-RSV antibody palivizumab (v22277) was used as a control.
(§10) Briefly, cells were seeded at 50,000 cells/well in V-bottom 96-well plates and treated with antibody for 24 hours at 4° C. to prevent internalization. Following incubation, cells were washed and stained with anti-human IgG Fc AF647 conjugate (Jackson ImmunoResearch Laboratories, Inc., West Grove, PA; Cat. No. 109-605-098) at 4° C. for 30 min. Following incubation and washing, fluorescence was detected by flow cytometry on a BD LSRFortessa™ Cell Analyzer (BD Biosciences, Franklin Lake, NJ) with 1,000 minimum events collected per well. AF647/APC-A GeoMean (fluorescence signal geometric mean, proportional to anti-Human AF647 binding) in live cell population was plotted using GraphPad Prism Version 8 (GraphPad Software, San Diego, CA).
(§11) The on-cell binding capabilities of the following unconjugated antibodies and ADCs were assessed on SNU-5 and H292 endogenous cMet-expressing cell lines by flow cytometry: unconjugated variant v17427 (HetFc, unmodified hinge), and cysteine insertion variant v29001 (two cysteine insertions), lysine conjugated ADCs comprising variant v17427 and Drug-Linker 002 at DAR 4 or DAR 6, and cysteine conjugated ADCs comprising cysteine insertion variant insertion v29001 conjugated to Drug-Linker 001, Drug-Linker 003 or Drug-Linker 004 at DAR 2, 4 or 6, respectively. […] Cellular binding was determined as described in Example 10.

[8] = target: T2, cMet on SNU-5 endogenous cMet-expressing cell line (Homo sapiens, UniProt P08581); test: Cellular equilibrium binding by flow cytometry
T2 construct: SNU-5 and H292 endogenous cMet-expressing cell lines; endogenous in cells; host or cells: SNU-5
T2 sequence (P08581 25-1390): as above
Procedure: as §9, §10, §11

EBC-1 = test: Receptor-mediated internalization, high content imaging; format: cell-based; settings: 5 Hours 37° C.
HT-29 = test: as above; format: cell-based; settings: 5 Hours 37° C.
[9] = 24 hours at 4° C., Table 10.1, read-out: Apparent Kd
[10] = Table 13.1, read-out: Apparent Kd

CC[C@H](C)[C@@H]([C@@H](CC(=O)N1CCC[C@H]1[C@H](OC)[C@@H](C)C(=O)NS(=O)(=O)c1ccc(N)cc1)OC)N(C)C(=O)[C@@H](NC(=O)[C@H](C(C)C)N(C)C)C(C)C [Compound 1, (S)-N-((3R,4S,5S)-1-((S)-2-((1R,2R)-3-((4-aminophenyl)sulfonamido)-1-methoxy-2-methyl-3-oxopropyl)pyrrolidin-1-yl)-3-methoxy-5-methyl-1-oxoheptan-4-yl)-2-((S)-2-(dimethylamino)-3-methylbutanamido)-N,3-dimethylbutanamide]
EC50 ([1]; Homo sapiens, EBC-1, 96 h): 26.3 nM | EC50 ([1]; Homo sapiens, EBC-1, read-out: EC50 (nM) - DAR corrected): 44.4 nM | EC50 (H292 (lung carcinoma); Homo sapiens, NCI-H292, 96 h, H292, 4 days, Table 9.1): 7.42 nM | EC50 (H292 (lung carcinoma); Homo sapiens, NCI-H292, 96 h, H292, 4 days, Table 12.1): 7.42 nM | EC50 (H292 (lung carcinoma); Homo sapiens, NCI-H292, read-out: EC50 (nM) - DAR corrected, H292, 4-5 days, Table 6.1): 22.2 nM | EC50 (BT-20 (breast cancer); Homo sapiens, BT-20, read-out: EC50 (nM) - DAR corrected): 39.2 nM | EC50 (SW48 (colorectal cancer)): 43.6 nM | EC50 ([2]; Homo sapiens, NCI-H1975, 96 h): 22.7 nM | EC50 ([3]; Homo sapiens, SNU-5, 96 h, Table 9.1): 40 nM | EC50 ([3]; Homo sapiens, SNU-5, 96 h, Table 12.1): 40.1 nM | EC50 [4]: 44.8 nM

V22277-MCvcPABC-MMAE DAR 4.0: palivizumab (v22277) conjugated to MCvcPABC-MMAE at DAR 4, control [reference compound]
EC50 ([1]; EBC-1, 4 days, Table 8.1, read-out: EC50): > 10 nM | EC50 (H292 (lung carcinoma); H292, 4 days, Table 8.1, read-out: EC50): > 10 nM | EC50 (BT-20 (breast cancer); BT-20, 4 days, Table 8.1, read-out: EC50): > 10 nM | EC50 ([2]; H1975, 4 days, Table 8.1, read-out: EC50): > 10 nM | EC50 ([3]; Table 8.1, read-out: EC50): > 10 nM | EC50 (HCC827 (lung cancer)): > 10 nM | EC50 [5]: > 10 nM

telisotuzumab vedotin
anti-tumour activity [6]: anti-tumour activity

v22277: anti-RSV antibody, palivizumab, non-targeted control [reference compound]
Kd [7, 9]: > 50 nM | Kd [7, 10]: > 50 nM | Kd [8, 9]: > 50 nM | Kd [8, 10]: > 50 nM | Mean Object Fluorescence (Internalized) (EBC-1; 0.3 nM): 2,686 | Mean Object Fluorescence (Internalized) (EBC-1; 1.9 nM): 3,054 | Mean Object Fluorescence (Internalized) (EBC-1; 12 nM): 1,989 | Mean Object Fluorescence (Internalized) (EBC-1; 70 nM): 2,605 | Mean Object Fluorescence (Internalized) (HT-29; 0.3 nM): 2,746 | Mean Object Fluorescence (Internalized) (HT-29; 1.9 nM): 2,363 | Mean Object Fluorescence (Internalized) (HT-29; 12 nM): 2,331 | Mean Object Fluorescence (Internalized) (HT-29; 70 nM): 2,290
